Assay results from US10194659B2, “Active compound combinations” (BAYER CROPSCIENCE AKTIENGESELLSCHAFT, priority 2014, dated 2019).

Tests used:
[1] = system: Blumeria graminis f.sp. hordei; assay: In vivo preventive Blumeria test (barley); conditions: 100 ppm a.i., evaluated 7 days after inoculation
Description: (§1) To produce a suitable preparation of active compound, 1 part by weight of active compound or active compound combination is mixed with the stated amounts of solvent and emulsifier, and the concentrate is diluted with water to the desired concentration. To test for preventive activity, young plants are sprayed with the preparation of active compound or active compound combination at the stated rate of application. After the spray coating has been dried, the plants are dusted with spores of Blumeria graminis f.sp. hordei. The plants are placed in the greenhouse at a temperature of approximately 18° C. and a relative atmospheric humidity of approximately 80% to promote the development of mildew pustules.
The test is evaluated 7 days after the inoculation. 0% means an efficacy which corresponds to that of the untreated control, while an efficacy of 100% means that no disease is observed.

[2] = system: Leptosphaeria nodorum; assay: In vivo preventive Leptosphaeria nodorum test (wheat); conditions: evaluated 8 days after inoculation
Description: as §1, with “sprayed” for “dusted”, “a spore suspension” for “spores”, “Leptosphaeria nodorum. The plants remain for 48 hours in an incubation cabinet at approximately 20° C. and a relative atmospheric humidity of approximately 100%.” for “Blumeria graminis f.sp. hordei.”, “25°” for “18°”, “80%.” for “80% to promote the development of mildew pustules.”
(§2) The test is evaluated 8 days after the inoculation. 0% means an efficacy which corresponds to that of the untreated control, while an efficacy of 100% means that no disease is observed.

[3] = system: Puccinia triticina; assay: In vivo preventive Puccinia triticina test (wheat); conditions: 12.5 ppm a.i., evaluated 8 days after inoculation
Description: as §1, with “sprayed” for “dusted”, “a spore suspension” for “spores”, “Puccinia triticina. The plants remain for 48 hours in an incubation cabinet at approximately 20° C. and a relative atmospheric humidity of approximately 100%.” for “Blumeria graminis f.sp. hordei.”, “20°” for “18°”, “80%.” for “80% to promote the development of mildew pustules.”
as §2

[4] = system: Pyrenophora teres; assay: In vivo preventive Pyrenophora teres test (barley); conditions: evaluated 8 days after inoculation
Description: as §1, with “sprayed” for “dusted”, “a spore suspension” for “spores”, “Pyrenophora teres. The plants remain for 48 hours in an incubation cabinet at approximately 20° C. and a relative atmospheric humidity of approximately 100%.” for “Blumeria graminis f.sp. hordei.”, “20°” for “18°”, “80%.” for “80% to promote the development of mildew pustules.”
as §2

[5] = system: Septoria tritici; assay: In vivo preventive Septoria tritici test (wheat); conditions: 25 ppm a.i., evaluated 21 days after inoculation
Description: as §1, with “sprayed” for “dusted”, “a spore suspension” for “spores”, “Septoria tritici. The plants remain for 48 hours in an incubation cabinet at approximately 20° C. and a relative atmospheric humidity of approximately 100% and afterwards for 60 hours at approximately 15° C. in a translucent incubation cabinet at a relative atmospheric humidity of approximately 100%.” for “Blumeria graminis f.sp. hordei.”, “15°” for “18°”, “80%.” for “80% to promote the development of mildew pustules.”
The test is evaluated 21 days after the inoculation. 0% means an efficacy which corresponds to that of the untreated control, while an efficacy of 100% means that no disease is observed.

For fluopyram [1.006, reference compound], the “Efficacy in % found” value [1] was 71%, the “Efficacy in % found” value ([2]; 12.5 ppm a.i.) was 14% and the “Efficacy in % found” value ([2]; 25 ppm a.i.) was 14%. The “Efficacy in % found” value [3] was 0%, the “Efficacy in % found” value ([4]; 12.5 ppm a.i.) was 33% and the “Efficacy in % found” value ([4]; 50 ppm a.i.) was 75%. For the same substance, the “Efficacy in % found” value [5] was 17%.
